Measured values: patent publication US5849776A, “Medicaments based on metronidazole or on a synergic mixture of metronidazole and clindamycin” (Centre International de Recherches Dermatologiques Galderma …, priority 1994, dated 1998)
Entries after “also recorded” stand apart in the source; their conditions may differ.

What was measured:
[1] = tested on: oedema of the ear of the mouse induced by topical application of arachidonic acid; assay: oedema of the ear of the mouse induced by topical application of arachidonic acid (in vivo topical anti-inflammatory activity); conditions: for % Inhibition of the oedema After 1 h: 1 h after arachidonic acid; for % Inhibition of the oedema After 1 h / % Inhibition of the oedema After 2 h: each active 2% in acetone solution, topical, 25 μl twice daily for 4 days plus last application 2 h before arachidonic acid, vs other ear pretreated with acetone only; for % Inhibition of the oedema After 2 h: 2 h after arachidonic acid; for anti-inflammatory activity (in words): in vivo topical application
Source text: The test used to evaluate this activity is that of oedema of the ear of the mouse induced by topical application of arachidonic acid. According to this model, the topical application of arachidonic acid to the ear causes an inflammation which is characterized by the rapid development of an oedema, the latter becoming maximum at the end of one hour after application. The oedematous response is then quantified by measuring the thickness of the ear.
The exact operating protocol is the following: the mice are first of all pretreated with the active product(s) to be evaluated, two topical applications per day (2×25 μl; one application in the morning and the other in the evening) being carried out on one of their ears of an acetone solution containing, at a given concentration, this or these active principle(s); this pretreatment is carried out for four consecutive days. Then, on the fifth day, the mice receive a last application (25 μl) of the solution containing the active principle(s) to be tested, which takes place two hours before the application to the ear thus pretreated of the arachidonic acid intended to produce the oedema (25 μl of a THF/methanol solution containing 4 weight % of arachidonic acid). The oedematous response is then quantified by measuring the thickness of the ear 1 hour and 2 hours after application of the arachidonic acid solution.

[2] = tested on: oedema of the ear of the mouse induced by topical application of arachidonic acid; conditions: conventional agents, general statement on the model; cited from earlier work

Row | Structure (SMILES) | % Inhibition of the oedema After 1 h [1] | % Inhibition of the oedema After 2 h [1] | anti-inflammatory activity (in words) [1] | inhibition in this model (in words) [2]
1 | CCC[C@@H]1C[C@@H](C(=O)N[C@@H]([C@H]2O[C@H](SC)[C@H](O)[C@@H](O)[C@H]2O)[C@H](C)Cl)N(C)C1 [Clindamycin] | (ni) | (ni) | does not, by itself, have any significant activity; also recorded: no, or substantially no, anti-inflammatory activity | –
2 | Cc1ncc([N+](=O)[O-])n1CCO [Metronidazole, 2-methyl-5-nitroimidazole-1-ethanol] | 20% | 36% | good anti-inflammatory activity after in vivo topical application | –
3 | COc1ccc2c(c1)c(CC(=O)O)c(C)n2C(=O)c1ccc(Cl)cc1 [indomethacin] | – | – | – | good inhibitors in this model
4 | COc1ccc2cc([C@H](C)C(=O)O)ccc2c1 [naproxen] | – | – | – | good inhibitors in this model
5 | CCCCC1C(=O)N(c2ccccc2)N(c2ccccc2)C1=O [phenylbutazone] | – | – | – | good inhibitors in this model
